This is an account of results in BindingDB's records for doi:10.1021/jm051059p (Merck Frosst Centre For Therapeutic Research, 2006).

pIC50: −log10 of the molar value.

The target of this test is T1, Cathepsin K (Oryctolagus cuniculus, UniProt P43236).
T1 sequence (P43236 whole entry): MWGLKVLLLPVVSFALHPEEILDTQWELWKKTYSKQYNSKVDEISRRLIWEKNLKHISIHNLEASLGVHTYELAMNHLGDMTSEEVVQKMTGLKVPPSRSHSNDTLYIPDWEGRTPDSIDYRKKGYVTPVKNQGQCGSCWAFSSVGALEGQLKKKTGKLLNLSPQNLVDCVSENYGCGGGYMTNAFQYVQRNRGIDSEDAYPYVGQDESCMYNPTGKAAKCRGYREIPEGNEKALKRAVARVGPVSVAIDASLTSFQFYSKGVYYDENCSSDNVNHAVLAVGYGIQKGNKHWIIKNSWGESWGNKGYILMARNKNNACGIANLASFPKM
As to the kind of experiment: Enzyme Inhibition Assay. The method, then: Prior to the addition of substrate, different concentrations of the inhibitor ranging from 100 uM to 0.2 nM were preincubated for 15 min with enzyme to allow the establishment of the enzyme-inhibitor complex. The proteolytic cleavage of N-acyl aminocoumarins by cathepsins was conducted in 96-well plate format and the plate read using a Spectramax (Molecular Devices) plate reader. The excitation wavelength was 355 nm and the emission wavelength was 460 nm for peptidyl-AMC substrates. The percent inhibition of the reaction was calculated from a control reaction containing only vehicle. IC50 curves were generated by fitting percent inhibition values to a four parameter logistic model (SOFTMAX PRO, Molecular Devices).

What is called pIC50 is the IC50 on a negative log10 scale, so that one unit is a factor of ten. `CSc1ccc(/C=C\[C@@H]2CCCC[C@H]2C(=O)NCC#N)cc1` (racemic) [racemic mixture] had a pIC50 (pH 5.5, 22 °C) of 9.30.

As for `N#CCNC(=O)[C@@H]1CC(F)(F)CC[C@H]1c1ccccc1-c1ccc(F)cc1` (racemic) [racemic mixture], the pIC50 is 7.72.

With `N#CCNC(=O)[C@@H]1CCCC[C@H]1CSc1ccc(N)cc1` (racemic) [racemic mixture], the pIC50 (pH 5.5, 22 °C) was 7.00.

For the compound `CSc1ccc(CC[C@@H]2CCCC[C@H]2C(=O)NCC#N)cc1` [racemic mixture], the pIC50 (pH 5.5, 22 °C) is 8.77.

Take `Cc1ccc(SC[C@@H]2CCCC[C@H]2C(=O)NCC#N)cc1` [racemic mixture]: under “pH 5.5, 22 °C”, the pIC50 was 7.00.
